pKd: −log10 of the molar value.
Legend:
[1] = target: Hrg; assay: ITC; conditions: 10 mM sodium phosphate, 50 mM NaCl, pH 7.4, 25 °C; single-site model
[2] = target: T1, AphB (Vibrio cholerae, UniProt Q9KT56); assay: biochemical
T1 construct: gene VC_1049

Structure (SMILES): NC(=O)c1ncn([C@@H]2O[C@H](CO)[C@@H](O)[C@H]2O)n1 [ribavirin, 1-D-ribofuranosyl-1H-1,2,4-triazole-3-carboxamide]
- pKd [1]: 3.63
- pKd [2]: ~3.52

From article PMC5171790, “Ribavirin suppresses bacterial virulence by targeting LysR-type transcriptional regulators” (Scientific Reports, 2016)
